# Reference: the METLIN SMRT retention time set (Domingo-Almenara et al. 2019)
# Assay: gradient 5% acetonitrile 3 min, to 50% in 2 min, to 85% in 15 min, held 3 min, 100 µL/min
# Conditions: column: Zorbax Extend-C18 2.1 x 50 mm; eluents: water / acetonitrile, 0.1% formic acid
# Method in brief: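 Retention times of pure standards were taken from adduct peaks that were selected by computer and manually inspected. Over 3 months, mixtures of ~100 molecules were run by HPLC–quadrupole time-of-flight mass spectrometry in positive and negative ionization mode. The Zorbax Extend-C18 column (2.1 × 50 mm, 1.8 μm) ran at 100 μL/min in water and acetonitrile, each containing 0.1% formic acid, with 40 μL dead volume and 900 μL dwell volume.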
row,Compound,RP-LC retention time [s]
1,CCC(=O)N1CCc2sc(S(=O)(=O)N3CCN(c4ccc(OC)cc4)CC3)cc2C1,886
2,Cc1nnc(-c2cn(CC(=O)Nc3ccc(Br)cc3F)c3ccccc23)o1,890
3,COCCCNC(=O)Cn1c(=O)c2cccn2c2ccc(F)cc21,689
4,COc1cc(NC(=O)CN2C(=O)C(C)(C)c3cc(Cl)ccc32)cc(OC)c1OC,867
5,COc1cccc2c1OC1(C)CC2C(S(=O)(=O)c2ccc(Cl)cc2)C(=O)N1 (centres undefined),877
6,CC1=C(C(=O)Nc2ccccc2F)C2(CCN(C(C)C)CC2)OC1=O,613
7,CSc1ccc(-c2nc3cnccn3c2Nc2ccc(C(=O)NCc3ccco3)cc2)cc1,778
8,COc1ccc(-c2noc(C3CCCN3C(=O)Cc3ccsc3)n2)cc1 (centres undefined),928
9,CCOC(=O)c1[nH]c(C)c(CCC(=O)N2CCCC(C(=O)NC(C)C)C2)c1C (centres undefined),723
10,CS(=O)(=O)N1CCC(C(=O)NCCc2ccccc2)Oc2ccc(Cl)cc21 (centres undefined),919
11,Cc1ccc(CNC(=O)CN2C(=O)C3CCCCN3c3ccc(S(=O)(=O)N(C)C)cc32)o1 (centres undefined),867
12,COc1ccc(NC(=O)NCCc2nc3cccnc3n2-c2ccccc2)cc1OC,657
13,Cn1cnc2c(C(=O)N3CCc4ccccc4C3)nn(-c3ccccc3)c2c1=O,831
14,COc1ccc(Nc2c(-c3nc(C)no3)cnc3nc(C)ccc23)c(OC)c1,692
15,COc1cc(OC)cc(C(=O)N2CCN(c3cc(C)n4c(C)nnc4n3)CC2)c1,601
16,O=C(Oc1ccccc1)N(c1ccccc1)c1ccccc1,1160
17,Cc1csc(-c2csc(S(=O)(=O)N3CCc4ccccc4C3)c2)n1,1110
18,Cc1ccc(C)c(S(=O)(=O)N(C)CC2CCOCC2)c1,913
19,COc1ccc(NC(=O)Cn2c(=O)n(-c3ccccc3)c(=O)c3c2cc(C)n3C)cc1OC,791
20,Cc1ccn2cc(C(=O)NC(C)c3ccc(F)cc3)nc2c1 (centres undefined),670

row,Compound,RP-LC retention time [s]
1,COc1ccc2ncc(S(=O)(=O)c3ccc(C)c(C)c3)c(N3CCN(C)CC3)c2c1,654
2,CCCN(CC1CCOC1)C(=O)Nc1cc(F)ccc1F (centres undefined),844
3,Cc1oc(-c2[nH]ncc2C(=O)N(C)C)cc1S(=O)(=O)Nc1ccc(F)c(Cl)c1,740
4,CC1CCC(NC(=O)C2c3ccccc3C(=O)N2CCCN2CCOCC2)CC1 (centres undefined),640
5,COc1cccc(-c2noc(C3CCCN3C(=O)Nc3ccc(OC)c(Cl)c3)n2)c1 (centres undefined),974
6,COC(=O)c1sccc1NC(=O)N1CCCn2nc(-c3cccc(Cl)c3)cc2C1,972
7,Cc1noc(C)c1S(=O)(=O)N1CCC(C(=O)NCc2csc(-c3ccccc3)n2)CC1,870
8,CCC(C(=O)Nc1c(-c2ccccc2)nc2cc(C)ccn12)c1ccccc1 (centres undefined),939
9,Cc1ccccc1-c1nc(-c2ccc3nnn(C)c3c2)no1,1060
10,O=C(COc1ccc(NC(=O)C2CC2)cn1)NCc1cc(F)cc(F)c1,754
11,O=C(Nc1ccccc1Cl)C(=O)c1c[nH]c2ccccc12,1130
12,CC(C)OCCCN1C(=O)CN(C2CCCCC2)C(=O)C1c1cccs1 (centres undefined),991
13,O=C(NCc1cc(F)ccc1F)C1CCCN(c2cnc3nccnc3c2)C1 (centres undefined),715
14,CCOC(=O)c1ccc2nc(C(F)(F)F)nc(NCc3ccc(Cl)cc3)c2c1,1240
15,COc1ccc(NC(=O)C2CCN(c3nnc4ccc(Cl)cn34)CC2)c(OC)c1,723
16,COc1ccc(CCNC(=O)N2CC3CC2C(=O)O3)cc1 (centres undefined),625
17,COc1ccc(Cn2nc3c(S(=O)(=O)N4CCCCC4)cccn3c2=O)cc1F,888
18,COc1ccccc1CNC(=O)c1cn(C)nc1S(=O)(=O)N1CCSCC1,847
19,O=C(NCCCN1CCOCC1)C1CCc2sc(C(=O)N3CCCCCC3)cc2C1 (centres undefined),560

# Second part, the compound after the results:
row,RP-LC retention time [s],Compound
1,675,Cc1noc(C)c1CNC(=O)c1ccc(C#N)cc1
2,777,COCc1cc(=O)n(Cc2ccccc2)c(N2CCCC2)n1
3,1280,Cc1ccc(C)c(N2CCN(C(=O)C3CCCN(c4nc5ccccc5n(C)c4=O)C3)CC2)c1 (centres undefined)
4,576,Cc1cc(C(=O)N2CCOCC2)n(CC(=O)NCc2ccco2)n1
5,720,Cc1cccc(Cn2c(C)c(CNCCc3ccco3)c(C(=O)O)c2C)c1
6,947,CC1CCN(C(=O)c2cc3c(s2)CCC(C(=O)Nc2ccc4c(c2)OCCO4)C3)CC1 (centres undefined)
7,602,CCCNC(=O)C1CCN(c2ccc(SCC(=O)NCc3cccs3)nn2)CC1
8,1010,Cc1ccc(-c2noc(-c3nn(-c4ccc(C)cc4)ccc3=O)n2)cc1
9,818,CCCN(CC1CCOC1)C(=O)Nc1cccc(C)c1C (centres undefined)
10,1070,CC1(C)CC(=O)c2cn(-c3ccc(F)cc3)c(=O)c(C(=O)Nc3ccccc3F)c2C1
11,692,Cc1oc(-c2[nH]ncc2C(=O)N(C)C)cc1S(=O)(=O)NCCC(C)C
12,756,CCOC(=O)c1ccc(NC(=O)Cc2csc3nc(-c4ccc(OC)c(OC)c4)cn23)cc1
13,1270,O=C(Nc1ccccc1Cl)c1c(O)c2cccnc2n(-c2cccc(F)c2)c1=O
14,845,CCOC(=O)c1ccc(N2C=C(C(=O)N3CCCC3)S(=O)(=O)c3ccc(F)cc32)cc1
15,680,CC(NC(=O)c1cc(-c2ccc(F)cc2)cn1C)c1cccnc1 (centres undefined)
16,896,COc1ccc(N2C(=O)CCC(C(=O)N3CC(C)CC(C)C3)C2c2ccc(F)cc2)cc1 (centres undefined)
17,1040,COc1ccc(C(=O)Nc2nc3c(s2)CCCC3C(=O)NCCC2=CCCCC2)cc1 (centres undefined)
18,913,COc1ccc(-c2nnc(Cc3nc(-c4cccs4)no3)o2)cc1
19,691,COc1cc(NC(=O)c2c(OC)cc(=O)n3c2CCCC3)cc(OC)c1
20,728,Cc1nnc2c(=O)n(CC(=O)NCc3ccc(C(F)(F)F)cc3)c3cccnc3n12
21,1280,CCc1ccc(-c2noc(CSc3nc4cc5c(cc4c(=O)n3CC3CCCO3)OCO5)n2)cc1 (centres undefined)
22,638,Cc1cccc(-c2nc3nc(C)cc(N4CCN(c5ccccn5)CC4)n3n2)c1
23,706,CN1C(=O)CSc2cnn(CC(=O)N3CCN(c4ccc(F)cc4)CC3)c(=O)c21
24,668,COc1ccc(NC(=O)Nc2c(-c3ccc(F)cc3)nc3ccccn23)cc1F
25,792,COCCN(Cc1ccco1)c1nc(-c2ccc(OC)cc2)nc2ccccc12

row,RP-LC retention time [s],Compound
1,1310,O=S(=O)(c1ccc2c(c1)CCC2)N1CCCC1c1nc(-c2ccc(Cl)cc2)no1 (centres undefined)
2,615,CN1CCN(Cc2nn(C)c3c2CN(S(=O)(=O)c2ccccc2Cl)CC3)CC1
3,545,CC(C)c1nnc(C2CCN(C(=O)c3ccc4nc[nH]c4c3)CC2)o1
4,604,Cc1cc(C)n(CCC(=O)N2CCCn3ccnc3C2C2CCCC2)n1 (centres undefined)
5,790,COc1cc(-c2nc3ncccn3c2NC2CCCCCC2)cc(OC)c1OC
6,847,COc1ccc(S(=O)(=O)N2CCC(c3noc(C4CC4)n3)C2)cc1 (centres undefined)
7,849,Cc1cccc(-c2noc(C3CCCN3S(=O)(=O)c3c(C)c(C)cc(C)c3C)n2)c1 (centres undefined)
8,774,CCOC(=O)C1CCN(C(=O)Cc2nnc(-c3sccc3C)o2)CC1
9,1040,Cc1cc(Br)ccc1NC(=O)Cc1csc(Nc2ccc(Cl)cn2)n1
10,939,Cc1c(-c2nn3c(Cc4ccccc4)nnc3s2)nnn1-c1ccccc1
11,831,CCCC(C)c1nnc(NC(=O)C2CCN(C(=O)c3cccc(F)c3)CC2)s1 (centres undefined)
12,880,Cc1cccc(CNC(=O)Cc2csc3nc(-c4ccccc4)cn23)c1
13,733,CC(C)n1c(=O)c(NCc2ccc(OC(F)(F)F)cc2)nc2ccncc21
14,815,O=C(Cn1c(=O)c2cc(C3CC3)nn2c2ncccc21)Nc1cc(F)cc(F)c1
15,784,COc1ccc(-c2c(C)noc2NC(C)=O)cc1S(=O)(=O)N1CCc2ccccc21
16,612,Cn1cc(-c2cc3n(n2)CCC(=O)N3CC(=O)NCCN2CCOCC2)c2ccccc21
17,588,Cc1cccc(NC(=O)Cn2nnc(-c3ccccc3)n2)c1C
18,609,COc1ccc(N2CCN(c3cc(C(=O)O)c4cc(NS(C)(=O)=O)ccc4n3)CC2)cc1
19,675,O=C(NCC1CCCCC1)c1ccc2ncnc(N3CCCC3)c2c1
20,1060,COc1cc(NC(=O)Nc2nccn(-c3ccc(C)c(Cl)c3)c2=O)cc(OC)c1
21,813,O=C(NCc1csc(-c2ccccc2)n1)C1CCCN(c2cc(-n3cccn3)ncn2)C1 (centres undefined)
22,825,COc1ccc(CSc2nnc3c(S(=O)(=O)N4CCCC4)cccn23)cc1F
23,906,COc1cccc(OCC2c3ccsc3CCN2C(=O)CN(CC2CCCO2)C(=O)C(C)C)c1 (centres undefined)
24,910,CCCNC(=O)N1c2ccccc2CC1c1nc(C(C)C)no1 (centres undefined)
25,744,COCc1cc(=O)n(Cc2ccccc2C#N)c(N2CCCC2)n1
